Measurements as given in article PMC12207590, “Substrate Specificity of the Organic Cation Transporters MATE1 and MATE2K and Functional Overlap with OCT1 and OCT2” (Journal of Medicinal Chemistry, 2025).
Read-outs that look alike come from different tables or passages of the source.

Assays:
MATE2K = MATE2K (Homo sapiens, UniProt Q86VL8); assay: Uptake ratio in MATE2K-overexpressing HEK293 cells vs empty vector (2.5 μM, 1 min, HPLC-MS/MS); type: cell-based; conditions: for MATE2K ratio in this study: Table S1
MATE2K, sequence (Q86VL8 1-566 isoform Q86VL8-3): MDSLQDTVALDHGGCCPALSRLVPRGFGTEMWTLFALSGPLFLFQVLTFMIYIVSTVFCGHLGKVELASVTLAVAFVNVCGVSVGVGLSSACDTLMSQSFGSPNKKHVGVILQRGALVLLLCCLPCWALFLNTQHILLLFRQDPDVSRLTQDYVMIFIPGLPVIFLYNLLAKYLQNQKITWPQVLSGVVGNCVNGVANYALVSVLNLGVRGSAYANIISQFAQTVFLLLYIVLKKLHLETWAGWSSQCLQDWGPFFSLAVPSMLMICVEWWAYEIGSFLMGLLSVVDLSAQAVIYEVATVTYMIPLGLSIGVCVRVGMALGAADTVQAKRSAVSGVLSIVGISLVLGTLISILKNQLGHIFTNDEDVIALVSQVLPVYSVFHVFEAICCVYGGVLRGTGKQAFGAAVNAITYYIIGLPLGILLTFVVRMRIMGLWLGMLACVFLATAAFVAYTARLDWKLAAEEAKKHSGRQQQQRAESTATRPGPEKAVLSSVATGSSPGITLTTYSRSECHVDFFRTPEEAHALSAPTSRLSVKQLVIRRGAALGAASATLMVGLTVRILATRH

MATE1 = biological target: T1, MATE1 (Homo sapiens, UniProt Q96FL8); assay: Uptake ratio in MATE1-overexpressing HEK293 cells vs empty vector (2.5 μM, 1 min, HPLC-MS/MS); type: cell-based; conditions: for MATE1 ratio in this study: Table S1
T1 sequence (Q96FL8 1-570): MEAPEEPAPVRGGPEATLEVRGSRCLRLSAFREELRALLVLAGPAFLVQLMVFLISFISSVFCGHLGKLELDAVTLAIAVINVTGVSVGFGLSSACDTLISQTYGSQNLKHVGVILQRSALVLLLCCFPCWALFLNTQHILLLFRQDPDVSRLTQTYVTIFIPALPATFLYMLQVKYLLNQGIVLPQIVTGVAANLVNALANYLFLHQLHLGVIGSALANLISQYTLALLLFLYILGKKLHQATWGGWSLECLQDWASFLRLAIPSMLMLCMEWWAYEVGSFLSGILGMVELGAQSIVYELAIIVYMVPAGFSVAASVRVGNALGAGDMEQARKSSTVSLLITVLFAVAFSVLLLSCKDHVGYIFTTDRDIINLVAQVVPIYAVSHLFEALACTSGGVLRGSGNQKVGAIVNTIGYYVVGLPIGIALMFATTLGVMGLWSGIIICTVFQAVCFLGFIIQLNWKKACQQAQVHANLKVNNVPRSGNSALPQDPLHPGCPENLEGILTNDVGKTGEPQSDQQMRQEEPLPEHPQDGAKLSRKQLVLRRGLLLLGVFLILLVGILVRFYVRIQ

[1] = fold uptake over empty vector, 2.5 μM, 1 min

CC(C)Nc1cccnc1N1CCN(C(=O)c2cc3cc(NS(C)(=O)=O)ccc3[nH]2)CC1 [Delavirdine]
MATE2K ratio (MATE2K; [1]): 1.09
MATE1 ratio (MATE1; [1]): 1.19

COc1ccc(CCNC[C@H](O)c2ccc(O)cc2)cc1OC [Denopamine (R), Denopamine]
MATE2K ratio (MATE2K; [1]): 1.69
MATE1 ratio (MATE1; [1]): 2.32

CNCCc1ccc(O)c(O)c1 [Deoxyepinephrine]
MATE2K ratio (MATE2K; [1]): 3.40
MATE1 ratio (MATE1; [1]): 34.31

CC(C1=C(CCN(C)C)Cc2ccccc21)c1ccccn1 (centres unmarked) [Dimethindene]
MATE2K ratio (MATE2K; [1]): 1.02
MATE1 ratio (MATE1; [1]): 0.99

C[N+]1(C)CCN(c2ccccc2)CC1 [Dimethylphenylpiperazinium]
MATE2K ratio (MATE2K): 4.30
MATE1 ratio (MATE1): 29.06

OCCN(CCO)c1nc(N2CCCCC2)c2nc(N(CCO)CCO)nc(N3CCCCC3)c2n1 [Dipyridamole]
MATE2K ratio (MATE2K; [1]): 1.13
MATE1 ratio (MATE1; [1]): 1.11

CC(C)N(CCC(C(N)=O)(c1ccccc1)c1ccccn1)C(C)C (centres unmarked) [Disopyramide]
MATE2K ratio (MATE2K; [1]): 1.21
MATE1 ratio (MATE1; [1]): 1.26

CN(C)CCC=C1c2ccccc2COc2ccccc21 [Doxepin (E), Doxepin]
MATE2K ratio (MATE2K; [1]): 1.08
MATE1 ratio (MATE1; [1]): 1.26

CN(C)CCC=C1c2ccccc2COc2ccccc21 [Doxepin (Z), Doxepin]
MATE2K ratio (MATE2K; [1]): 1.09
MATE1 ratio (MATE1; [1]): 1.28

CCC1(C2=NCCN2)Cc2ccccc2O1 (centres unmarked) [Efaroxan]
MATE2K ratio (MATE2K; [1]): 1.72
MATE1 ratio (MATE1; [1]): 1.38

CC/C(=C(\c1ccc(O)cc1)c1ccc(OCCNC)cc1)c1ccccc1 [Endoxifen]
MATE2K ratio (MATE2K; [1]): 1.21
MATE1 ratio (MATE1; [1]): 1.30

COc1cc2c(cc1OC)-c1cc3ccc4c(c3c[n+]1CC2)OCO4 [Epiberberine]
MATE2K ratio (MATE2K): 5.89
MATE1 ratio (MATE1): 12.54

CNC[C@H](O)c1ccc(O)c(O)c1 [Epinephrine (-), Epinephrine]
MATE2K ratio (MATE2K; [1]): 3.98
MATE1 ratio (MATE1; [1]): 37.78

COC(=O)CCc1ccc(OCC(O)CNC(C)C)cc1 (centres unmarked) [Esmolol]
MATE2K ratio (MATE2K; [1]): 1.23
MATE1 ratio (MATE1; [1]): 1.42

C[C@]12CC[C@@H]3c4ccc(OS(=O)(=O)O)cc4CC[C@H]3[C@@H]1CCC2=O [Estrone-3-sulfate]
MATE2K ratio in this study (MATE2K; 2.5 μM, 1 min): 2.08
MATE2K ratio (MATE2K; [1]): 2.08
MATE1 ratio in this study (MATE1; 2.5 μM, 1 min): 4.80
MATE1 ratio (MATE1; [1]): 4.80
substrate of MATE1 (MATE1; organic anions tested): substrates of MATE1

CCNCC(O)c1cccc(O)c1 (centres unmarked) [Etilefrine]
MATE2K ratio (MATE2K; [1]): 2.04
MATE1 ratio (MATE1; [1]): 9.81

O=S(=O)(c1cccc2cnccc12)N1CCCNCC1 [Fasudil]
MATE2K ratio (MATE2K; [1]): 1.80
MATE1 ratio (MATE1; [1]): 1.50

Cc1cnc(Nc2ccc(OCCN3CCCC3)cc2)nc1Nc1cccc(S(=O)(=O)NC(C)(C)C)c1 [Fedratinib]
MATE2K ratio (MATE2K; [1]): 0.87
MATE1 ratio (MATE1; [1]): 1.16

NC(=O)OCC(COC(N)=O)c1ccccc1 [Felbamate]
MATE2K ratio (MATE2K; [1]): 0.94
MATE1 ratio (MATE1; [1]): 0.97

Oc1ccc(C2CNCCc3c2cc(O)c(O)c3Cl)cc1 (centres unmarked) [Fenoldopam]
MATE2K ratio (MATE2K; [1]): 4.17
MATE1 ratio (MATE1; [1]): 8.11

C[N+]1(CCC(C(N)=O)(c2ccccc2)c2ccccc2)CCCCC1 [Fenpiverinium]
MATE2K ratio (MATE2K; [1]): 1.35
MATE1 ratio (MATE1; [1]): 15.19

O=C(Nc1nc2cccc(-c3ccc(CN4CCS(=O)(=O)CC4)cc3)n2n1)C1CC1 [Filgotinib]
MATE2K ratio (MATE2K; [1]): 1.01
MATE1 ratio (MATE1; [1]): 0.89

CCCCCCCCc1ccc(CCC(N)(CO)CO)cc1 [Fingolimod]
MATE2K ratio (MATE2K; [1]): 1.14
MATE1 ratio (MATE1; [1]): 1.12

O=C(NCC1CCCCN1)c1cc(OCC(F)(F)F)ccc1OCC(F)(F)F (centres unmarked) [Flecainide]
MATE2K ratio (MATE2K; [1]): 1.19
MATE1 ratio (MATE1; [1]): 1.13

OCCN1CCN(CCCN2c3ccccc3Sc3ccc(C(F)(F)F)cc32)CC1 [Fluphenazine]
MATE2K ratio (MATE2K; [1]): 1.13
MATE1 ratio (MATE1; [1]): 1.26

Nc1nc(=O)c2nc(CNc3ccc(C(=O)N[C@@H](CCC(=O)O)C(=O)O)cc3)cnc2[nH]1 [Folic acid]
MATE2K ratio (MATE2K; [1]): 1.13
MATE1 ratio (MATE1; [1]): 1.00

CCOC(=O)c1ccc(OC(=O)CCCCCNC(=N)N)cc1 [Gabexate]
MATE2K ratio (MATE2K; [1]): 4.18
MATE1 ratio (MATE1; [1]): 5.78

NCCCC(=O)O [Gamma-aminobutyric acid]
MATE2K ratio (MATE2K; [1]): 0.87
MATE1 ratio (MATE1; [1]): 0.90

COc1cc2ncnc(Nc3ccc(F)c(Cl)c3)c2cc1OCCCN1CCOCC1 [Gefitinib]
MATE2K ratio (MATE2K; [1]): 0.88
MATE1 ratio (MATE1; [1]): 0.89

Nc1ccn([C@@H]2O[C@H](CO)[C@@H](O)C2(F)F)c(=O)n1 [Gemcitabine]
MATE2K ratio in this study (MATE2K; 2.5 μM, 1 min): 1.08
MATE2K ratio (MATE2K; [1]): 1.08
MATE1 ratio in this study (MATE1; 2.5 μM, 1 min): 1.29
MATE1 ratio (MATE1; [1]): 1.29

CN(C)c1ccc(C(=C2C=CC(=[N+](C)C)C=C2)c2ccc(N(C)C)cc2)cc1 [Gentian violet]
MATE2K ratio (MATE2K; [1]): 1.05
MATE1 ratio (MATE1; [1]): 1.40

N[C@@H](CCC(=O)O)C(=O)O [Glutamic acid (D), Glutamic acid]
MATE2K ratio (MATE2K): 0.99
MATE1 ratio (MATE1): 1.17

N=C(N)NC(=O)Cc1c(Cl)cccc1Cl [Guanfacine]
MATE2K ratio (MATE2K; [1]): 1.37
MATE1 ratio (MATE1; [1]): 1.60

CNCC(O)c1ccccc1 (centres unmarked) [Halostachine]
MATE2K ratio (MATE2K; [1]): 1.52
MATE1 ratio (MATE1; [1]): 1.41

COc1ccc2c3c([nH]c2c1)C(C)=NCC3 [Harmaline]
MATE2K ratio (MATE2K): 1.15
MATE1 ratio (MATE1): 1.19

CCCCCCCN [Heptylamine]
MATE2K ratio (MATE2K): 1.60
MATE1 ratio (MATE1): 1.18

CCCCCC(=O)OC(CC(=O)[O-])C[N+](C)(C)C (centres unmarked) [Hexanoylcarnitine]
MATE2K ratio (MATE2K; [1]): 1.01
MATE1 ratio (MATE1; [1]): 1.02

Oc1ccc(CC2NCCc3cc(O)c(O)cc32)cc1 (centres unmarked) [Higenamine]
MATE2K ratio (MATE2K; [1]): 11.27
MATE1 ratio (MATE1; [1]): 14.55

NCCc1c[nH]cn1 [Histamine]
MATE2K ratio (MATE2K; [1]): 1.40
MATE1 ratio (MATE1; [1]): 19.90

NC(N)=NCCCC[C@H](N)C(=O)O [Homoarginine]
MATE2K ratio (MATE2K): 0.97
MATE1 ratio (MATE1): 0.97

CN(C)CCc1ccc(O)cc1 [Hordenine]
MATE2K ratio (MATE2K): 1.20
MATE1 ratio (MATE1): 1.16

CC(NC(C)(C)CO)C(=O)c1cccc(Cl)c1 (centres unmarked) [Hydroxybupropion]
MATE2K ratio (MATE2K): 1.51
MATE1 ratio (MATE1): 1.09

O=P1(NCCCl)OCCCN1CCCl (centres unmarked) [Ifosfamide]
MATE2K ratio (MATE2K): 1.17
MATE1 ratio (MATE1): 1.24

CCc1cc2c(cc1CC)CC(NC[C@H](O)c1ccc(O)c3[nH]c(=O)ccc13)C2 [Indacaterol]
MATE2K ratio (MATE2K; [1]): 1.88
MATE1 ratio (MATE1; [1]): 1.98

CC(C)C(=O)O[C@H](CC(=O)[O-])C[N+](C)(C)C [Isobutyrylcarnitine]
MATE2K ratio (MATE2K; [1]): 1.35
MATE1 ratio (MATE1; [1]): 1.40

CCC(NC(C)C)C(O)c1ccc(O)c(O)c1 (centres unmarked) [Isoetharine]
MATE2K ratio (MATE2K; [1]): 1.85
MATE1 ratio (MATE1; [1]): 5.65

CC(C)NCC(O)c1ccc(O)c(O)c1 (centres unmarked) [Isoprenaline]
MATE2K ratio (MATE2K; [1]): 4.67
MATE1 ratio (MATE1; [1]): 16.78

COc1cc2c(cc1OC)CC(=O)N(CCCN(C)C[C@H]1Cc3cc(OC)c(OC)cc31)CC2 [Ivabradine]
MATE2K ratio (MATE2K; [1]): 1.23
MATE1 ratio (MATE1; [1]): 1.14

O=C(C[S+]([O-])Cc1ccco1)NC/C=C\COc1cc(CN2CCCCC2)ccn1 (centres unmarked) [Lafutidine]
MATE2K ratio (MATE2K; [1]): 1.48
MATE1 ratio (MATE1; [1]): 1.41

CC1(C)OC[C@@H](COC(=O)CCc2ccc(OC[C@@H](O)CNCCNC(=O)N3CCOCC3)cc2)O1 [Landiolol]
MATE2K ratio (MATE2K; [1]): 2.87
MATE1 ratio (MATE1; [1]): 3.68

Nc1cccc2c1CN(C1CCC(=O)NC1=O)C2=O (centres unmarked) [Lenalidomide]
MATE2K ratio (MATE2K; [1]): 1.53
MATE1 ratio (MATE1; [1]): 1.78

CC(C)C[C@H](N)C(=O)O [Leucine]
MATE2K ratio (MATE2K; [1]): 1.06
MATE1 ratio (MATE1; [1]): 1.18

N[C@@H](Cc1ccc(O)c(O)c1)C(=O)O [Levodopa]
MATE2K ratio (MATE2K; [1]): 1.01
MATE1 ratio (MATE1; [1]): 0.71

NCCCC[C@H](N)C(=O)O [Lysine]
MATE2K ratio (MATE2K): 1.05
MATE1 ratio (MATE1): 1.13
